# Results: EP0719281B1, “MULTIPLE BRANCH PEPTIDE CONSTRUCTIONS FOR USE AGAINST HIV” (priority 1993, dated 1995)
# “Also recorded” adds a separate entry of the source. Bridge positions count the residues as written; N and C are the ends. Square brackets hold non-standard residues; d marks the D form. Ends that are not written are not given here. I, II: the chains in the order shown. βAla = NCCC(=O)O
# Experiments:
# [1] = test system: CEM or C8166 cells; details: concentrations of 10^-7 to 10^-4M; 15 days
# Description: (§1) An MTT assay, a colorimetric cell viability assay using 3-[4,5-Dimethylthiazol-2-yl] 2,5-diphenyltetrazolium bromide, was used to assess the effect of MBPCs on cell viability. CEM or C8166 cells (5x10^4) were cultured continuously (15 days) in the presence of various concentrations of MBPCs in the wells of 96-well microtiter plates in 200 µl final volume of RPMI 1640 medium supplemented with 5% fetal calf serum, 1% glutamine, 1% streptomycin-penicillin (available from Gibco of Irvine, Scotland) in a humidified atmosphere with 5% CO2. Every 3 to 4 days, an MTT assay was performed on 100 µl of cells suspension and MBPC were added to cell culture and the volume completed to 200 µl.
# [2] = test system: 8E5 cells; assay: Toxicity in the cell fusion test (MTT assay or trypan blue exclusion); details: Concentration (M) 5x10^-5
# Description: Toxicity was evaluated by either MTT assay (described below) or trypan blue exclusion technique.
# as §1
# [3] = test system: RT-deficient HIV-I(IIIB) isolate; assay: Inhibition of HIV-I induced cell fusion (8E5 cells co-cultivated with PHA stimulated human PBLs); assay type: cell-based; details: for Inhibition of HIV-I induced cell fusion (number of syncytia): after 24 hours
# Description: 50 x 10^3 8E5 cells chronically infected with a RT-deficient HIV-I(IIIB) isolate, were co-cultivated with 150 x 10^3 phytohemagglutinin (PHA) stimulated human peripheral blood lymphocytes (PBLs) in the presence of the indicated peptide in 96-well plates. The MBPCs used are described by the peptides attached, and the number thereof, to a core lysine matrix, which is designated MLC. All amino acids used for this experiment were in dextro form.
# [4] = test system: HIV-1(89.6); assay: Infection of and syncytia formation in human primary macrophages; assay type: cell-based; details: MBPC 5x10^-5M; 10,000 TCID50; 4 days post-infection
# Description: Mononuclear cells were isolated from leukophoresis units enriched for monocytes by Ficoll-Hypaque density separation. Macrophages were purified by adherence to plastic in RPMI 1640 supplemented with 10% fetal calf serum and 5% human AB serum. […] After thorough washing, the cells were fed again with medium and analyzed for HIV-1 p24^gag production and syncytia formation 4 days post-infection.
Compound,toxicity to cells (MTT assay) [1],Toxicity [2],Toxicity ([2]; listed as [RKSIHIGPGRAFYT]4-MLC),syncytia formation / cell fusion (in words) [3],Inhibition of HIV-I induced cell fusion (number of syncytia) ([3]; Concentration (M) 5x10^-5),Inhibition of HIV-I induced cell fusion (number of syncytia) ([3]; Concentration (M) 5 x10^-6),Inhibition of HIV-I induced cell fusion (number of syncytia) ([3]; Concentration (M) 5x10^-7),infection of macrophages (in words) [4]
"C[C@H](NC(=O)[C@H](CCCNC(=N)N)NC(=O)CNC(=O)[C@@H]1CCCN1C(=O)CN)C(=O)N[C@@H](Cc1ccccc1)C(=O)NCCCC[C@H](NC(=O)[C@H](Cc1ccccc1)NC(=O)[C@H](C)NC(=O)[C@H](CCCNC(=N)N)NC(=O)CNC(=O)[C@@H]1CCCN1C(=O)CN)C(=O)NCCCC[C@H](NC(=O)[C@H](CCCCNC(=O)[C@H](Cc1ccccc1)NC(=O)[C@H](C)NC(=O)[C@H](CCCNC(=N)N)NC(=O)CNC(=O)[C@@H]1CCCN1C(=O)CN)NC(=O)[C@H](Cc1ccccc1)NC(=O)[C@H](C)NC(=O)[C@H](CCCNC(=N)N)NC(=O)CNC(=O)[C@@H]1CCCN1C(=O)CN)C(=O)NCCCC[C@H](NC(=O)[C@H](CCCCNC(=O)[C@H](CCCCNC(=O)[C@H](Cc1ccccc1)NC(=O)[C@H](C)NC(=O)[C@H](CCCNC(=N)N)NC(=O)CNC(=O)[C@@H]1CCCN1C(=O)CN)NC(=O)[C@H](Cc1ccccc1)NC(=O)[C@H](C)NC(=O)[C@H](CCCNC(=N)N)NC(=O)CNC(=O)[C@@H]1CCCN1C(=O)CN)NC(=O)[C@H](CCCCNC(=O)[C@H](Cc1ccccc1)NC(=O)[C@H](C)NC(=O)[C@H](CCCNC(=N)N)NC(=O)CNC(=O)[C@@H]1CCCN1C(=O)CN)NC(=O)[C@H](Cc1ccccc1)NC(=O)[C@H](C)NC(=O)[C@H](CCCNC(=N)N)NC(=O)CNC(=O)[C@@H]1CCCN1C(=O)CN)C(=O)NCCC(=O)O [MBPC.3, (GPGRAF)8-(K)4-(K)2-K-βA-OH]",not toxic,,,,,,,
C[C@H](NC(=O)[C@@H](CCCNC(=N)N)NC(=O)CNC(=O)[C@@H]1CCCN1C(=O)CN)C(=O)N[C@@H](Cc1ccccc1)C(=O)NCCCC[C@H](NC(=O)[C@H](Cc1ccccc1)NC(=O)[C@H](C)NC(=O)[C@@H](CCCNC(=N)N)NC(=O)CNC(=O)[C@@H]1CCCN1C(=O)CN)C(=O)NCCCC[C@H](NC(=O)[C@H](CCCCNC(=O)[C@H](Cc1ccccc1)NC(=O)[C@H](C)NC(=O)[C@@H](CCCNC(=N)N)NC(=O)CNC(=O)[C@@H]1CCCN1C(=O)CN)NC(=O)[C@H](Cc1ccccc1)NC(=O)[C@H](C)NC(=O)[C@@H](CCCNC(=N)N)NC(=O)CNC(=O)[C@@H]1CCCN1C(=O)CN)C(=O)NCCCC[C@H](NC(=O)[C@H](CCCCNC(=O)[C@H](CCCCNC(=O)[C@H](Cc1ccccc1)NC(=O)[C@H](C)NC(=O)[C@@H](CCCNC(=N)N)NC(=O)CNC(=O)[C@@H]1CCCN1C(=O)CN)NC(=O)[C@H](Cc1ccccc1)NC(=O)[C@H](C)NC(=O)[C@@H](CCCNC(=N)N)NC(=O)CNC(=O)[C@@H]1CCCN1C(=O)CN)NC(=O)[C@H](CCCCNC(=O)[C@H](Cc1ccccc1)NC(=O)[C@H](C)NC(=O)[C@@H](CCCNC(=N)N)NC(=O)CNC(=O)[C@@H]1CCCN1C(=O)CN)NC(=O)[C@H](Cc1ccccc1)NC(=O)[C@H](C)NC(=O)[C@@H](CCCNC(=N)N)NC(=O)CNC(=O)[C@@H]1CCCN1C(=O)CN)C(=O)NCCC(=O)O [[GPG(R)DAF]8-MLC],,Toxic,,,,,,
"I: RKSIHIGPGRAFYTKK[βAla] / II: RKSIHIGPGRAFYTK / III: RKSIHIGPGRAFYT / IV: RKSIHIGPGRAFYT (amide I:15-IV:C, I:16-II:C, II:15-III:C) [MBPC.5]",,,some toxicity; also recorded: Toxic,,,,,
[Ac-GPGRAF]8-MLC,,,,significant loss of activity,- (- indicates the total absence of syncytia in the well),+++,+++,
[GPGRAF]8-MLCD,,,,,+++,+++,+++,significantly less active than [GPGRAF]8-MLC
[GPGRA]8-MLC,,,,did not inhibit cell fusion,+++,+++,+++,
[GPGR]8-MLC,,,,did not inhibit cell fusion,+++,+++,+++,
[IGPGRAF]8-MLC,,,,significant loss of activity,- (- indicates the total absence of syncytia in the well),±,+++,
[RKSIHKGPGRAFYT]4-MLC,,Toxic,,,,- (- indicates the total absence of syncytia in the well),+++,
[RKSIHTGPGRAFYT]4-MLC,,Toxic,,,,- (- indicates the total absence of syncytia in the well),+++,
